The record followed here is ChEMBL document CHEMBL1201862, “PubChem BioAssay data set” (2004).

Some test systems named below: SN12C; LOX IMVI; HOP-92; M14; OVCAR-5; HOP-62; OVCAR-4; NCI-H23; MCF7; T47D; SK-MEL-5; RPMI-8226; MOLT-4; SW-620; HCC 2998; IGROV-1; COLO 205; HT-29; CAKI-1; SR.
Test in all cases: inhibition of tumour cell growth, NCI panel, 48 h

The structures appear in SMILES notation.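 96-well plates; 48 h exposure; 5 concentrations. Endpoints by linear interpolation between flanking doses. Not reached: highest tested concentration assigned. Here, GI50 denotes the concentration required for 50% inhibition of growth.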 The source made the active and inactive calls. Cut-off read from the data, not from the text of the source: active = GI50 up to about 1.1 µM and inactive = higher.

Turning to `O=C(CSc1nc2ccc([N+](=O)[O-])cc2s1)c1ccc2ccccc2c1`, the GI50 in the assay on SN12C was > 100 µM (inactive); in the assay on LOX IMVI, > 100 µM (inactive); in the assay with HOP-92, 57.7 µM (inactive); in the assay with M14, > 100 µM (inactive); in the assay with OVCAR-5, > 100 µM (inactive); in the assay with HOP-62, > 100 µM (inactive). Further, the GI50 was 41.2 µM (inactive) with OVCAR-4; 33 µM (inactive) in the assay with NCI-H23; > 100 µM (inactive) with MCF7; > 100 µM (inactive) in the assay on T47D; > 100 µM (inactive) in the assay with SK-MEL-5; > 100 µM (inactive) in the assay on RPMI-8226. Further, the GI50 in the assay on MOLT-4 is 74.6 µM (inactive); in the assay on SW-620, > 100 µM (inactive); in the assay with HCC 2998, > 100 µM (inactive); in the assay on IGROV-1, > 100 µM (inactive); with COLO 205, > 100 µM (inactive); with HT-29, > 100 µM (inactive). In addition, in the assay with CAKI-1, the GI50 is > 100 µM (inactive).

For `Cc1ccc(NC(=O)/C=C/c2ccccc2)c(C)c1`, the GI50 was 94.8 µM (inactive) with SN12C; > 100 µM (inactive) in the assay with LOX IMVI; > 100 µM (inactive) in the assay on M14; > 100 µM (inactive) in the assay with OVCAR-5; 32.7 µM (inactive) in the assay with HOP-62; > 100 µM (inactive) with OVCAR-4. In addition, the GI50 in the assay on NCI-H23, in the assay on MCF7, in the assay with T47D, in the assay on SK-MEL-5, with RPMI-8226 and in the assay with MOLT-4 was > 100 µM (inactive) throughout. In addition, the GI50 with SW-620, in the assay with HCC 2998, in the assay on COLO 205, in the assay with SR, in the assay with HT-29 and in the assay with CAKI-1 was > 100 µM (inactive) each time.

`O=C(Cn1cc(F)c(=O)[nH]c1=O)C12CC3CC(CC(C3)C1)C2`: the GI50 in the assay with SN12C, in the assay on LOX IMVI, in the assay with M14, in the assay on OVCAR-5, in the assay on HOP-62 and in the assay on OVCAR-4 was > 100 µM (inactive) throughout. In addition, the GI50 with NCI-H23, in the assay with MCF7, with T47D, with SK-MEL-5, in the assay on RPMI-8226 and with MOLT-4 was > 100 µM (inactive) throughout. For the same molecule, the GI50 in the assay on SW-620, in the assay on HCC 2998, in the assay with IGROV-1, in the assay with COLO 205, in the assay on SR and in the assay with HT-29 was > 100 µM (inactive) each time. In addition, in the assay with CAKI-1, the GI50 is > 100 µM (inactive).

`CC(=O)c1cccc(NC(=O)/C(=N\NC(=S)NN)C2C(=O)Nc3ccccc3[S+]2[O-])c1` (stereo not given): the GI50 is > 100 µM (inactive) with SN12C; > 100 µM (inactive) with LOX IMVI; 83.8 µM (inactive) in the assay with HOP-92; > 100 µM (inactive) in the assay with M14; > 100 µM (inactive) with OVCAR-5; > 100 µM (inactive) with HOP-62. Besides, the GI50 in the assay on NCI-H23, in the assay on MCF7, with T47D, in the assay with SK-MEL-5, in the assay on RPMI-8226 and in the assay with MOLT-4 was > 100 µM (inactive) throughout. Moreover, the GI50 in the assay on SW-620, in the assay on IGROV-1, in the assay on SR, with HT-29 and with CAKI-1 was > 100 µM (inactive) in each case.

Turning to `O=[N+]([O-])c1cccc2nccc(NCCCO)c12`, the GI50 was 14.8 µM (inactive) with SN12C; 12.9 µM (inactive) in the assay on LOX IMVI; 12.9 µM (inactive) in the assay with M14; 20.1 µM (inactive) in the assay on OVCAR-5; 17.5 µM (inactive) in the assay on HOP-62; 11 µM (inactive) in the assay with OVCAR-4. Moreover, the GI50 was 12.5 µM (inactive) in the assay with NCI-H23; 12.7 µM (inactive) with MCF7; 26.4 µM (inactive) in the assay on T47D; 3.9 µM (inactive) with SK-MEL-5; 13.6 µM (inactive) with RPMI-8226; 13.9 µM (inactive) in the assay with MOLT-4. Moreover, the GI50 with SW-620 was 13.3 µM (inactive); in the assay with HCC 2998, 13.2 µM (inactive); with IGROV-1 it was 13.3 µM (inactive); in the assay with COLO 205, 3.55 µM (inactive); with SR it was 7.66 µM (inactive); with HT-29 it was 6.89 µM (inactive). Also, the GI50 in the assay on CAKI-1 was 13.8 µM (inactive).

Consider `COc1ccc(-c2nc3ccccc3c(=S)n2OC(C)=O)cc1`, for which the GI50 is 8.07 µM (inactive) in the assay with SN12C; 4.92 µM (inactive) in the assay on LOX IMVI; > 25 µM (inactive) in the assay with HOP-92; 4.98 µM (inactive) in the assay with M14; > 25 µM (inactive) with OVCAR-5; 4.76 µM (inactive) in the assay with HOP-62. Moreover, the GI50 in the assay with OVCAR-4 was 8.32 µM (inactive); with NCI-H23, 1.95 µM (inactive); in the assay with MCF7 it was 5.92 µM (inactive); in the assay with T47D, 3.5 µM (inactive); with SK-MEL-5, 2.93 µM (inactive); with RPMI-8226, 3.27 µM (inactive). Besides, the GI50 was 1.15 µM (inactive) in the assay on MOLT-4; 4.63 µM (inactive) in the assay on SW-620; > 25 µM (inactive) with HCC 2998; 0.143 µM (active) with IGROV-1; 2.38 µM (inactive) with COLO 205; 2.55 µM (inactive) in the assay on HT-29. Further, the GI50 with CAKI-1 was 5.9 µM (inactive).

`CCOC1Oc2ccccc2-c2nc(N)ncc21` (stereo not given): the GI50 in the assay with SN12C was 77.1 µM (inactive); in the assay on LOX IMVI, 27 µM (inactive); in the assay on HOP-92 it was 69 µM (inactive); with M14, 56.8 µM (inactive); with OVCAR-5, > 100 µM (inactive); in the assay on OVCAR-4, > 100 µM (inactive). The GI50 was > 100 µM (inactive) with NCI-H23; 37.4 µM (inactive) in the assay with MCF7; 51.3 µM (inactive) in the assay on T47D; 42.8 µM (inactive) in the assay on SK-MEL-5; 40 µM (inactive) with RPMI-8226; 52.5 µM (inactive) with MOLT-4. Also, the GI50 with SW-620 was 46.3 µM (inactive); in the assay with IGROV-1 it was 43.6 µM (inactive); in the assay on COLO 205 it was 57.5 µM (inactive); with SR, 24.9 µM (inactive); with HT-29 it was 34.8 µM (inactive); in the assay on CAKI-1, 30.6 µM (inactive).

For the molecule `N#Cc1c2c(c(N)oc1=O)C(c1ccccc1)CC(=O)N2` (stereo not given), the GI50 in the assay on SN12C, in the assay on LOX IMVI, in the assay on HOP-92, in the assay with M14, with OVCAR-5 and in the assay on HOP-62 was > 100 µM (inactive) in each case. Also, the GI50 with OVCAR-4, with NCI-H23, in the assay on MCF7, in the assay with T47D, in the assay with SK-MEL-5 and in the assay with RPMI-8226 was > 100 µM (inactive) throughout. Moreover, the GI50 in the assay with MOLT-4, in the assay on SW-620, with HCC 2998, with IGROV-1, in the assay on COLO 205 and in the assay on HT-29 was > 100 µM (inactive) throughout. Further, in the assay with CAKI-1, the GI50 was > 100 µM (inactive).

Consider `CSCCCCCCCCCCOc1ccc(C=C2C(=C(C#N)C#N)c3ccccc3C2=C(C#N)C#N)cc1`, for which the GI50 is 23.5 µM (inactive) in the assay on LOX IMVI; 11.7 µM (inactive) in the assay on HOP-92; 17.9 µM (inactive) with M14; 16.6 µM (inactive) in the assay with OVCAR-5; 17.9 µM (inactive) in the assay on HOP-62; 18.3 µM (inactive) in the assay with OVCAR-4. The GI50 was 22.1 µM (inactive) with NCI-H23; 14.5 µM (inactive) with MCF7; 21.6 µM (inactive) in the assay on T47D; 17.9 µM (inactive) with SK-MEL-5; 28.8 µM (inactive) in the assay on RPMI-8226; 19.2 µM (inactive) with MOLT-4. For the same molecule, the GI50 in the assay with SW-620 was 17.8 µM (inactive); in the assay with IGROV-1, 17.3 µM (inactive); in the assay with SR, 15 µM (inactive); with HT-29 it was 17.3 µM (inactive); in the assay with CAKI-1 it was 17.1 µM (inactive).

`COC(=N)c1ncn(Cc2ccccc2)c1N`: the GI50 in the assay on SN12C, in the assay with LOX IMVI, with HOP-92, with M14, in the assay on OVCAR-5 and in the assay on HOP-62 was > 100 µM (inactive) throughout. For the same molecule, the GI50 in the assay on OVCAR-4, with NCI-H23, with MCF7, in the assay on T47D, in the assay with SK-MEL-5 and with RPMI-8226 was > 100 µM (inactive) in each case. Further, the GI50 in the assay on SW-620, in the assay on HCC 2998, with IGROV-1, with COLO 205, with HT-29 and with CAKI-1 was > 100 µM (inactive) throughout.

Turning to `COc1ccc2nc(-c3ccc(O)cc3)sc2c1`, the GI50 was 20.6 µM (inactive) with SN12C; 22.6 µM (inactive) in the assay on LOX IMVI; 22.7 µM (inactive) in the assay with M14; 17.7 µM (inactive) in the assay with OVCAR-5; 28.5 µM (inactive) in the assay on OVCAR-4; 20.8 µM (inactive) in the assay on NCI-H23. In addition, the GI50 in the assay on MCF7 was 34.7 µM (inactive); in the assay with T47D, 17.5 µM (inactive); in the assay on SK-MEL-5, 18.2 µM (inactive); in the assay with RPMI-8226, < 0.01 µM (active); in the assay with MOLT-4 it was 27.9 µM (inactive); with SW-620, 21.8 µM (inactive). For the same molecule, the GI50 with IGROV-1 was 19.1 µM (inactive); in the assay on COLO 205 it was 21.5 µM (inactive); in the assay on SR, 4.86 µM (inactive); in the assay with HT-29 it was 20 µM (inactive); in the assay with CAKI-1 it was 29.3 µM (inactive).
